Results as given in patent US20030143670A1, “DNA encoding SNORF44 receptor” (priority 1999, published 2003).
“Also recorded” adds a separate entry of the source. Where no end group is shown, it is not given here.

Tests used:
hSNORF44 [1] = target: T1, hSNORF44 (Homo sapiens, UniProt Q96P65); assay: Calcium-activated Cl- currents in Xenopus laevis oocytes (voltage clamp); type: cell-based; design: Synthetic, full-length RNA transcripts for human SNORF44 were produced by digestion of the plasmid BN16; expressed in transfected cells; host or cells: Xenopus laevis oocytes injected with synthetic RNA; details: oocytes injected with SNORF44 mRNA; 10 μM peptide; holding potential -80 mV
T1 sequence (Q96P65 1-431): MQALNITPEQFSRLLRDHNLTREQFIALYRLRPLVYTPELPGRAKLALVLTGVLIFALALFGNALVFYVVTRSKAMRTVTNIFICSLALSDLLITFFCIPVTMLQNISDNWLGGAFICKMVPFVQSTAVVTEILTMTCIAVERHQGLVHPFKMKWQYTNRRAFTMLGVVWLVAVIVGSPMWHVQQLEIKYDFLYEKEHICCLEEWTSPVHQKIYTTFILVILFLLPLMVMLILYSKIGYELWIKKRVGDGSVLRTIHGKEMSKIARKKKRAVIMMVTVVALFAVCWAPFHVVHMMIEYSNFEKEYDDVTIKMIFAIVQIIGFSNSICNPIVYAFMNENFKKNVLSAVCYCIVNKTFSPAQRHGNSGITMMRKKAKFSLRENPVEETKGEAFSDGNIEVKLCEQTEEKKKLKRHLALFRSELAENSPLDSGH
Experimental: (§1) Oocytes were harvested from Xenopus laevis and injected with mRNA transcripts as previously described (Quick and Lester, 1994; Smith et al.,1997). Synthetic, full-length RNA transcripts for human SNORF44 were produced by digestion of the plasmid BN16 with HINDIII followed by transcription with T7 RNA Polymerase (“Message Machine”, Ambion). Oocytes were injected with 15 ng hSN44 receptors synthetic RNA and incubated for 3-4 days at 17 degrees. Dual electrode voltage clamp (Axon Instruments Inc.) was performed using 3 M KCl-filled glass microelectrodes having resistances of 1-2 Mohm. Unless otherwise specified, oocytes were voltage clamped at a holding potential of −80 mV. During recordings, oocytes were bathed in continuously flowing (1-3 ml/min) medium containing 96 mM NaCl, 2 mM KCl, 1.8 mM CaCl2, 1 mM MgCl2, and 5 mM HEPES, pH 7.5 (ND96 Buffer). Drugs were applied by local perfusion from a […] glass capillary tube fixed at a distance of 0.5 mm from the oocyte.
(§2) Heterologous expression of GPCRs in Xenopus oocytes has been widely used to determine the identity of signaling pathways activated by agonist stimulation (Gundersen et al., 1983; Takahashi et al., 1987). Activation of the phospholipase C (PLC) pathway is assayed by applying test compound in ND96 solution to oocytes previously injected with mRNA for the mammalian receptor and observing inward currents at a holding potential of −80 mV. The appearance of currents that reverse at −25 mV and display other properties of the Ca^++-activated Cl^− (chloride) channel is indicative of mammalian receptor-activation of PLC and release of IP3 and intracellular Ca^++.

human SNORF44 = assay: as above; type: cell-based; details: control (uninjected) oocytes not expressing hSNORF44
Experimental: as §1, §2

hSNORF44 [2] = target: T1, hSNORF44; assay: Intracellular Ca2+ release (FLIPR) in transiently transfected COS-7 cells; type: cell-based; design: The entire coding region was then amplified by PCR from human spinal cord cDNA and subcloned into pcDNA3.1(−) for expression and functional analyses; expressed in transfected cells; host or cells: COS-7; details: COS-7 cells transfected with SNORF44
Experimental: (§3) A typical protocol for the DEAE-dextran method as applied to COS-7 and HEK293 cells is described as follows. Cells to be used for transfection are split 24 hours prior to the transfection to provide flasks which are 70-80% confluent at the time of transfection. Briefly, 8 μg of receptor DNA plus 8 μg of any additional DNA needed (e.g. Gα protein expression vector, reporter construct, antibiotic resistance marker, mock vector, etc.) are added to 9 ml of complete DMEM plus DEAE-dextran mixture (10 mg/ml in PBS). Cells plated into a T225 flask (sub-confluent) are washed once with PBS and the DNA mixture is added to each flask. The cells are allowed to incubate for 30 minutes at 37° C., 5% CO2. Following the incubation, 36 ml of complete DMEM with 80 μM chloroquine is added to each flask and allowed to incubate an additional 3 hours. The medium is then aspirated and 24 ml of complete medium containing 10% DMSO for exactly 2 minutes and then aspirated. The cells are then washed 2 times with PBS and 30 ml of complete DMEM added to each flask. The cells are then allowed to incubate over night. The next day the cells are harvested by trypsinization and reseeded into 96 well plates.
Cells expressing the receptor of interest are plated into clear, flat-bottom, black-walled 96-well plates (Costar) at a density of 80,000-150,000 cells per well and allowed to incubate for 48 hr at 5% CO2, 37° C. The growth medium is aspirated and 100 μL of loading medium containing Fluo-3 dye is added to each well. […]
(§4) The compounds of interest are diluted in wash buffer (Hank's BSS (without phenol red), 20 mM HEPES, 2.5 mM probenecid) to a 4× final concentration and aliquoted into a clear v-bottom plate (Nunc). […] Compounds are added to the cell plates and responses are measured using the FLIPR™ instrument. The data are then collected and analyzed using the FLIPR™ software and Graphpad Prism. […]

hSNORF44 [3] = target: T1, hSNORF44; assay: Inositol phosphate (IP) release in transfected COS-7 cells; type: cell-based; design: The entire coding region was then amplified by PCR from human spinal cord cDNA and subcloned into pcDNA3.1(−) for expression and functional analyses; expressed in transfected cells; host or cells: COS-7; details: hSNORF44-transfected COS-7 cells
Experimental: as §3, with “The medium is then aspirated and 24 ml of complete medium containing 10% DMSO for exactly 2 minutes and then aspirated. The cells are then washed 2 times with PBS and 30 ml of complete DMEM added to each flask. The cells are then allowed to incubate over night. The next day the cells are harvested by trypsinization and reseeded into 96 well plates.” left out
Human SNORF44 receptor-mediated activation of the inositol phosphate (IP) second messenger pathways were assessed by radiometric measurement of IP products.
For example, in a 96 well microplate format assay, COS-7 cells expressing the receptor of interest were plated at a density of 70,000 cells per well and allowed to incubate for 24 hours. […] 200 μL of scintillation cocktail was added to each well, and the radioactivity was determined by liquid scintillation counting.

hSNORF44 [4] = assay: Intracellular Ca2+ release (FLIPR) in transiently transfected COS-7 cells; type: cell-based, human; details: vector-transfected cells (so in the source); data not shown
Experimental: as §3, with “The cells are then washed 2 times with PBS and 30 ml of complete DMEM added to each flask. The cells are then allowed to incubate over night. The next day the cells are harvested by trypsinization and reseeded into 96 well plates.” left out
as §4

MC3 = MC3 (Homo sapiens, UniProt P41968); details: Schioth et al., 1996; cited from earlier work
human SNORF44 receptor = target: T2, human SNORF44 receptor (human, UniProt Q96P65 1-431); assay: cell-based or functional assay
T2 sequence: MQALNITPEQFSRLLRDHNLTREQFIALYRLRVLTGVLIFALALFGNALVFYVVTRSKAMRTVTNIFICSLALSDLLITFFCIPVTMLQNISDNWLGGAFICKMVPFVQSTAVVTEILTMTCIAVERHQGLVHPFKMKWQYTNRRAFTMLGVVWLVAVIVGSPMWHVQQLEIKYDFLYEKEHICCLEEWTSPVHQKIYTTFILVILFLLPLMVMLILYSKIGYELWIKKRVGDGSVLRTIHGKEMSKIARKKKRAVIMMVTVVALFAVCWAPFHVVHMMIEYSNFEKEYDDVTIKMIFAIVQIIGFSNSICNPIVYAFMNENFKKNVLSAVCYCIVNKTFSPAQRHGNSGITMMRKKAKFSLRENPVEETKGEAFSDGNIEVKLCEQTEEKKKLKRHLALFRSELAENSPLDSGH

Sequence of MC3 (P41968 whole entry): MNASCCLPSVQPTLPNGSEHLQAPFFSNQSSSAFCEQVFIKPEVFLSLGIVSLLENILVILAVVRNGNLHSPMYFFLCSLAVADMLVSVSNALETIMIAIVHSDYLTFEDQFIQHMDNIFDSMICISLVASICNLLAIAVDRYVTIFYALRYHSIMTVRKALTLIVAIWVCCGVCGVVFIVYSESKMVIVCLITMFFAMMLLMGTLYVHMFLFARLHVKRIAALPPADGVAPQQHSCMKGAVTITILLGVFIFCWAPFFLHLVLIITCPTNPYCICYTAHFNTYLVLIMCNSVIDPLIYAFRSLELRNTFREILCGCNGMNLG

Molecule	current amplitude (Ca2+-dependent Cl- current) (hSNORF44 [1]) [nA]	response in control oocytes (human SNORF44)	release of intracellular Ca2+ as measured by FLIPR (hSNORF44 [2])	EC50, release of IP second messengers, COS-7 cells (human SNORF44 receptor) [nM]	other results
H-MGHFRF-NH2 [Peptide 2, MGHFRF-NH2]	241±65	not in control oocytes	stimulated release of intracellular Ca^2+		
H-YGGHFRW-NH2 [Peptide 3, YGGHFRW-NH2]	250±46	not in control oocytes	stimulated release of intracellular Ca^2+		
H-YSMEHFRW-NH2 [Peptide 1]	1036±306	no response; also recorded: does not respond	concentration-dependent release of intracellular Ca^2+		release of IP second messengers, fold above basal (hSNORF44 [3]): approximately 10 fold
NPFF (FLFQPQRF; ends and bridges not checked; UniProt O15130 69-76, looked up) [reference compound]					effect on intracellular Ca2+ release (hSNORF44 [4]): neither NPFF nor NPY (ligands activating the most closely related GPCRs) had any significant effect
NPY [reference compound]					effect on intracellular Ca2+ release (hSNORF44 [4]): neither NPFF nor NPY (ligands activating the most closely related GPCRs) had any significant effect
gamma melanocortin [γ-MSH]					agonist activity at recombinant MC3 receptor (MC3): agonist
YSMEHFRW-NH2 [Peptide 1]				1210	release of IP second messengers, fold above basal, COS-7 cells (human SNORF44 receptor): ~10 fold
YGGHFRW-NH2 [Peptide 3]				328	
MGHFRF-NH2 [Peptide 2]				294	
